Tests used:
[1] = target: T1, NTCP (Na+ taurocholate cotransporting peptide), HepG2-hNTCP-C4 cell line (Homo sapiens, UniProt Q14973); test: Inhibition of binding between FITC-labelled PreS1 and NTCP expressing cell line, flow cytometry; settings: for effect of inhibiting the binding between PreS1 and NTCP expressing cell lines by treatment concentration: 0.2 μM, 2 μM, 10 μM, 50 μM; for effect of inhibiting the binding between PreS1 and NTCP expressing cell lines by treatment concentration / ability to inhibit the binding between PreS1 and NTCP expressing cell lines (bile acid series): 20 nM PreS1; for ability to inhibit the binding between PreS1 and NTCP expressing cell lines (bile acid series) / relative fluorescence intensity compared to Comparative Example 1 (LCA): compound 50 µM; for relative fluorescence intensity compared to Comparative Example 1 (LCA): 20 nM PreS1, 4° C., 2 hours, lower = more inhibited binding
T1 construct: expressed in transfected cells; host or cells: HepG2-hNTCP-C4 (HepG2 cells expressing human NTCP)
T1 sequence (Q14973 1-349): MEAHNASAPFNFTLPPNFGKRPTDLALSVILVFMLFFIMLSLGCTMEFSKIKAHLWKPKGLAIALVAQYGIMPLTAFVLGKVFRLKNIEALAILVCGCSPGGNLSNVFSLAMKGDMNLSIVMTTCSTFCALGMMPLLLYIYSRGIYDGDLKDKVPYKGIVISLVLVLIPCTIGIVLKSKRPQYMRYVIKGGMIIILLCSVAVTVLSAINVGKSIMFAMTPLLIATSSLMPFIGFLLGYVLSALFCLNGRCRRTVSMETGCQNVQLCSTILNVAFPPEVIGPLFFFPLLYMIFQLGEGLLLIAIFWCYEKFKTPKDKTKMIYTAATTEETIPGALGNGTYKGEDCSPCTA
Method in brief: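 HepG2-hNTCP-C4 cells were pre-chilled at 4 °C for 30 min, then exposed to 20 nM Myr-PreS1-Lys(FITC) plus compound at 4 °C for 2 h, mostly at 50 μM, with some series at 0.2–50 μM or 2–50 μM. After washes and EDTA detachment, cell-bound green fluorescence was read by flow cytometry.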

[2] = target: T2, NTCP, HepG2-hNTCP-C4 cell line (Homo sapiens, UniProt Q14973); test: Inhibition of binding of fluorescent-labeled PreS1 peptide, fluorescence imaging; settings: 10 M and 50 PM; compared to the HBV-induced group solely treated with PreS1
T2 construct: expressed in transfected cells; host or cells: HepG2-hNTCP-C4 (HepG2 cells expressing human NTCP)
T2 sequence (Q14973 1-349): T1 sequence (Q14973 1-349)
Protocol: Specifically, after placing a cover slip coated with fibronectin on a 24 well plate, a HepG2-hNTCP-C4 cell line, which is a cell line expressing NTCP, was seeded at a density of 1×10^5, followed by incubation overnight. Thereafter, 20 nM PreS1 and the compounds in Examples 1, 8, 9, and 44 were treated by diluting in culture media at 4° C. at a concentration of 50 μM, respectively. After 2 hours, the media were suctioned, followed by washing twice with 4° C. PBS, fixation with 4% paraformaldehyde for 20 minutes, and washing twice with 4° C. PBS. Thereafter, 300 nM 4′,6-diamidino-2-phenylindole (DAPI) was treated to stain the nucleus for 20 minutes, and then washing was followed once with distilled water (DW) and twice with 4° C. PBS. Subsequently, 10 μl of mounting media was loaded onto a slide glass, and a cover slip was placed thereon for observation under a fluorescence microscope.
Green fluorescence may be observed when PreS1 binds to a cell line expressing NTCP by FITC conjugated to PreS1.

`CC[C@@H](C)[C@H](NC(=O)CC[C@@H](C)[C@H]1CC[C@H]2[C@@H]3CC[C@@H]4C[C@H](O)CC[C@]4(C)[C@H]3CC[C@]12C)C(=O)O` [Example 1, (2S,3R)-2-((R)-4-((3R,5R,8R,9S,10S,13R,14S,17R)-3-hydroxy-10,13-dimethyl-hexadecahydro-1H-cyclopenta[a]phenanthren-17-yl)pentanamido)-3-methylpentanoic acid] was tested, and the “effect of inhibiting the binding between PreS1 and NTCP expressing cell lines by treatment concentration” value [1] was “concentration dependent”, the “ability to inhibit the binding between PreS1 and NTCP expressing cell lines (bile acid series)” value [1] was “relatively excellent” and the “relative fluorescence intensity compared to Comparative Example 1 (LCA)” value [1] was “low and lower”. For the same compound, the “binding between PreS1 and NTCP (green fluorescence imaging)” value [2] was “inhibited in a concentration dependent manner”.
With `CC[C@@H](C)[C@H](NC(=O)CC[C@@H](C)[C@H]1CC[C@H]2[C@@H]3[C@@H](O)C[C@@H]4C[C@H](O)CC[C@]4(C)[C@H]3CC[C@]12C)C(=O)O` [Example 2, (2S,3R)-2-((R)-4-((3R,5S,7S,8R,9S,10S,13R,14S,17R)-3,7-dihydroxy-10,13-dimethyl-hexadecahydro-1H-cyclopenta[a]phenanthren-17-yl)pentanamido)-3-methylpentanoic acid] the “ability to inhibit the binding between PreS1 and NTCP expressing cell lines (bile acid series)” value [1] was “relatively excellent” and the “binding between PreS1 and NTCP (green fluorescence imaging)” value [2] was “inhibited in a concentration dependent manner”.
For `CC(C)[C@H](NC(=O)CC[C@@H](C)[C@H]1CC[C@H]2[C@@H]3[C@@H](O)C[C@@H]4C[C@H](O)CC[C@]4(C)[C@H]3CC[C@]12C)C(=O)O` [Example 3, (S)-2-((R)-4-((3R,5S,7S,8R,9S,10S,13R,14S,17R)-3,7-dihydroxy-10,13-dimethyl-hexadecahydro-1H-cyclopenta[a]phenanthren-17-yl)pentanamido)-3-methylbutanoic acid], the “ability to inhibit the binding between PreS1 and NTCP expressing cell lines (bile acid series)” value [1] was “relatively excellent” and the “binding between PreS1 and NTCP (green fluorescence imaging)” value [2] was “inhibited in a concentration dependent manner”.
In the case of `CC[C@@H](C)[C@H](NC(=O)CC[C@@H](C)[C@H]1CC[C@H]2[C@@H]3CC[C@@H]4C[C@H](O)CC[C@]4(C)[C@H]3C[C@H](O)[C@]12C)C(=O)O` [Example 10, (2S,3R)-2-((R)-4-((3R,5R,8R,9S,10S,12S,13R,14S,17R)-3,12-dihydroxy-10,13-dimethyl-hexadecahydro-1H-cyclopenta[a]phenanthren-17-yl)pentanamido)-3-methylpentanoic acid], the “ability to inhibit the binding between PreS1 and NTCP expressing cell lines (bile acid series)” value [1] is reported as “relatively excellent”.
`CC(C)[C@H](NC(=O)CC[C@@H](C)[C@H]1CC[C@H]2[C@@H]3CC[C@@H]4C[C@H](O)CC[C@]4(C)[C@H]3CC[C@]12C)C(=O)O` [Example 44, (S)-2-((R)-4-((3R,5R,8R,9S,10S,13R,14S,17R)-3-hydroxy-10,13-dimethyl-hexadecahydro-1H-cyclopenta[a]phenanthren-17-yl)pentanamido)-3-methylbutanoic acid] was tested, and the “effect of inhibiting the binding between PreS1 and NTCP expressing cell lines by treatment concentration” value [1] was “concentration dependent”, the “ability to inhibit the binding between PreS1 and NTCP expressing cell lines (bile acid series)” value [1] was “relatively excellent” and the “relative fluorescence intensity compared to Comparative Example 1 (LCA)” value [1] was “low and lower”. For the same compound, the “binding between PreS1 and NTCP (green fluorescence imaging)” value [2] was “inhibited in a concentration dependent manner”.
